The record followed here is patent US20060127957A1, “Novel biologicalcancer marker and methods for determining the cancerous or non-cancerous phenotype of cells” (priority 2002, published 2006).

For test [1], the system named is p53-responsive element of mdm2. Briefly: p53 transactivation assay (dual-luciferase, mdm2 promoter reporter) in MEF. Type of test: cell-based, mouse. As to conditions: MEF treated for 10 hours, TNFα 100 ng.ml^−1, adriamycin 5 μg.ml^−1, etoposide 25 μg.ml^−1; for activation of the p53-responsive element (luciferase activity): luciferase assayed 24 hours after transfection. As for the experimental part: A: MEF were transfected with the firefly luciferase gene under the control of the mdm2 promoter and treated for 10 hours either with TNFa adriamycin, or etoposide. The luciferase activity was assayed 24 hours after transfection. The p53 responsive element construct was transfected in combination with either p53wt, as a positive control, or with the dominant negative mutants p53-H273 or p53-H175. The luciferase activity was assayed 24 hours later. The results are shown as mean+/−S.D. of four measurements.
(§1) Human wild type p53 cDNA or its mutated forms, H175 and H273 were cloned into the BamH1 site of pCDNA3 vector (Invitrogen), then transferred in pEGFPC1 (Clontech) to give GFP-tagged proteins. Constructs expressing MYC epitope-tagged mutant Rac1, Cdc42 and RhoA proteins and their various mutants were kindly provided by P. Chavrier (Dutartre et al., 1996). The GFP fusion proteins were cloned in the pEGFP-C1 vector (Gauthier-Rouviere et al., 1998), (Ory et al., 2000), (Roux et al., 1997). The pcDNA3myc-NWASP containing the Cdc42-interacting domain of WASP was previously described in (Philips et al., 2000). The pGL2B-mdm2 plasmid in which the reporter gene luciferase is controlled by the p53-responsive element of mdm2 (Barak et al., 1994) was a kind gift of E. Yonish-Rouach. pTKRL plasmid was from Promega. TNFα, adriamycin and etoposide (Sigma) were used in all experiments at the concentration of 100 ng.ml^−1, 5 μg.ml^−1 and 25 μg.ml^−1, respectively.
p53 transactivation was measured using the dual-luciferase assay system from Promega. Cells (5×10^4) were seeded onto twelve-well plates and transfected 18 hours later in OptiMEM containing 0.440 μg of DNA (0.2 μg of appropriate GTPase plasmids, 0.2 μg of pGL2B-mdm2-luciferase plasmid and 0.04 μg of pTKRL plasmid) using 0.33 μl of Lipofectamine (Gibco-BRL) for 4 h. Cells were then left for 24 h in DMEM supplemented with 10% FCS, harvested in […] of Passive Lysis Buffer (PLB, Promega), and luciferase activity was measured following the Dual-luciferase™ Reporter Assay Protocol as recommended by Promega, using a luminometer fitted with two injectors (Berthold).
Cdc42-dependent filopodia formation was induced by bradykinin (Kozma et al., 1995; Nobes and Hall, 1995a). p53 was activated either by Tumor Necrosis Factor-a (TNFa), or using two cytotoxic drugs adriamycin and etoposide, previously shown to induce accumulation of p53 in MEF (Klefstrom et al., 1997; Lowe et al., 1993). […] Finally, we monitored the effect of p53 upregulation by TNFα, etoposide and adriamycin on Cdc42-dependent filopodia formation by bradykinin.

For another test, the system named is MEF. Briefly: Filopodia formation in MEF (F-actin staining, cells with at least 5 filopodia scored positive). The settings on record: pretreated for 10 hours (TNFα 100 ng.ml^−1, adriamycin 5 μg.ml^−1, etoposide 25 μg.ml^−1), followed by 12 minutes bradykinin; bradykinin alone 62%. The class given is cell-based, mouse.
Description: as §1
Cdc42-dependent filopodia formation was induced by bradykinin (Kozma et al., 1995; Nobes and Hall, 1995a). p53 was activated either by Tumor Necrosis Factor-a (TNFa), or using two cytotoxic drugs adriamycin and etoposide, previously shown to induce accumulation of p53 in MEF (Klefstrom et al., 1997; Lowe et al., 1993).

Regarding Tumor Necrosis Factor-a [TNFα], in test [1], the “activation of the p53-responsive element as % of the value obtained with the positive control (p53 wt)” value was found to be 36% and the “activation of the p53-responsive element (luciferase activity)” value is reported as “twenty eight-fold”. In addition, the “MEF having filopodia (bradykinin-mediated filopodia formation after pretreatment)” value with MEF turned out to be 28%.
Take `COc1cccc2c1C(=O)c1c(O)c3c(c(O)c1C2=O)C[C@@](O)(C(=O)CO)C[C@@H]3O[C@H]1C[C@H](N)[C@H](O)[C@H](C)O1` [adriamycin]: in test [1], the “activation of the p53-responsive element as % of the value obtained with the positive control (p53 wt)” value was found to be 23% and the “activation of the p53-responsive element (luciferase activity)” value was “nineteen-fold”. For the same compound, the “MEF having filopodia (bradykinin-mediated filopodia formation after pretreatment)” value in the test with MEF turned out to be 16%.
The matching figures for `COc1cc([C@@H]2c3cc4c(cc3[C@@H](O[C@@H]3O[C@@H]5CO[C@@H](C)O[C@H]5[C@H](O)[C@H]3O)[C@H]3COC(=O)[C@H]23)OCO4)cc(OC)c1O` [etoposide]: 30%, “twenty four-fold” and 20%.
